Source: patent US20080085861A1, “GAS1 POLYPEPTIDES” (priority 1999, published 2008)
“Also recorded” adds a separate entry of the source.

Tests used:
[1] = test system: cortico-hippocampal cultures; test: NMDA-induced neuronal death (excitotoxicity) in cortico-hippocampal cultures, viability by vital staining; type: cell-based, rat; parameters: survival: dose or concentration left out as unconfirmed
Procedure: The viability of mature cortico-hippocampal cultures was analyzed 24 hr after […] NMDA exposure. Pretreatment with the different antisense oligonucleotides at the indicated concentrations was done 24 hr before the exposure to NMDA. Results are expressed as mean +/−SEM. Statistical analysis was performed by Student's t-test. *** denotes […], and other treatment groups were statistically non-significant (p<0.5).
NMDA-induced excitotoxicity was analyzed in cortico-hippocampal cultures maintained for 12-14 DIV similar to those already described in Example 1. To apply the excitotoxic insult, the cultures were rinsed twice with Locke's solution without Mg2+ and exposed to […] NMDA (Sigma) for 5 min. in the same Locke's solution or to Locke's solution alone as control. NMDA was washed out, the Mg2+ concentration was restored by 2 changes of Locke's +Mg2+ solution, and the original medium was replaced. Phase-bright bipolar cells, taken to represent living neurons, were counted 24 hr after the NMDA exposure. Alternatively, the vital staining method (Jones and Senft, 1985 An improved method to determine cell viability by simultaneous staining with fluorescein diacetate-propidium iodide. J Histochem Cytochem 33:77-79) was used to assess the extent of neuronal death and the protection by antisense oligonucleotide treatments. Similar results were obtained using either method. […]

[2] = test system: human neuroblastoma NB69 cells; test: Staurosporine-induced neuronal death in NB69 cells, viable cell count; type: cell-based; details: 200 nM staurosporine, viability 24 hr after exposure; 25 μM Ag1 in NB69 wt, or stable expression in NB69-Gas1 cells
Procedure: Columns 1 and 2. […] Columns 3 and 4. The viability was analyzed 24 hr after exposure to staurosporine (200 nM) in all the cases. Results are expressed as mean +/−SEM. Statistical analysis was performed by Student's t-test. *** denotes […], and other treatment groups were statistically non-significant (p<0.5).
Staurosporine-induced neuronal death was assayed in human neuroblastoma NB69 cells cultured in DMEM/HAM F12 medium supplemented with 10% fetal calf serum, 2 mM glutamine and 50 μg/ml gentamycin. Wild-type or stably transfected NB69 cells (2×10^4 cells/35 mm dish) were exposed to […] staurosporine (RBI). Phase-bright cells without signs of membrane or neurite degeneration were counted 24 hr later. Experiments were done in triplicate and repeated as least five times. Stably transfected NB69 cells that overexpress Gas1 in the […] orientation (NB69-Gas1) were prepared by the calcium phosphate precipitation method followed by two weeks of geneticin selection. Control cells were prepared in parallel by transfection with pCDNA3 vector alone (NB69-vector). Expression of the constructs in the cell clones were analyzed by northern blot analysis, and the clones having the highest expression were chosen for the experiments. Stable tranfectants were kept in the presence of 0.3 mg/ml of geneticin, which was removed before plating for the experiments.

Gas1 expression = Gas1 expression in brain after intraperitoneal kainic acid (Northern blot); type: in vivo, rat; details: 10 mg/kg intraperitoneal; hippocampus and olfactory cortex
Procedure: Already detectable induced Gas1 mRNA levels after kainic acid appear 6 hours after the beginning of treatment and were maintained for at least 10 days. In order to reveal Gas1 induction and to confirm neurone localization thereof in situ hybridization after administering kainic acid was performed. […] Similar results were observed after provoking an experimental ischemic process in gerbil brain by transient occlusion of both carotids, giving rise to rapid degeneration of a numerous population of pyramidal neurons of the CA1 layer of the hippocampus. It was observed that this massive neuron death was preceded by a significant rise of Gas1 mRNA and Gas1 protein levels (evaluated by immunocytochemistry) in those neurons. Likewise, it was also observed that neuron loss in all the cerebral cortex that is produced in rats in the perinatal period after exposure to ionizing radiation is preceded by high induction of Gas1 mRNA.

[3] = Channel formation of purified Gas1 protein in artificial bilayers; type: biochemical; details: purified protein expressed in bacteria (pTrcHis)
From the text: Initially, Gas1 expression has been related to the G0 phase of cell cycle arrest in rat fibroblasts deprived of serum (Del Sal et al., 1992). […] Up to now it had been described that Gas1 protein was a cell membrane protein and as of its amino acid sequence the presence of two transmembrane segments had been proposed and a hypothetical RGD domain that may interact with integrin, the only domain described that relates its structure to its arrest function of the cell cycle (Schneider et al.). The present inventors have succeeded in overexpressing the Gas1 protein by means of a prokaryotic vector (pTrcHis) in bacteria for subsequent purification in sufficient amounts to carry out protein studies. […] Aside from the already described location of this protein in the cell membrane we have located the presence of Gas1 in the perinuclear and mitochondrial membrane. It must be pointed out that Bcl-2 and Bax, proteins related to the […], are also located in the mitochondrial membrane and are capable of forming ionic channels. This common location of these proteins makes compatible a possible functional interaction of Gas1 with Bax type proapoptotic proteins and Bcl-2 and Bcl XL antiapoptotic proteins.

In the case of “5′-TCCTCATCCATCCAT-3′ (DNA, linkages s2 o10 s2 (s phosphorothioate, o phosphodiester), methylation of C not given here) [AG1, 15-mer Gas1 antisense oligonucleotide spanning the start site of translation, protected at each end by two phosphorothioate groups]”, the “effect on NMDA-induced neuronal death” value ([1]; 25 μM Ag1, pretreatment 24 hr before 500 mM NMDA, viability 24 hr after exposure) is reported as “blocks NMDA-induced neuronal death”, the survival ([1]; NMDA induced neuron death in primary neuron cultures, FIG. 2a) is reported as roughly 100% and the “effect on staurosporine-induced reduction in survival” value [2] is reported as “prevents the reduction in survival; also recorded: total blocking”.

For `C=C(C)[C@H]1CN[C@H](C(=O)O)[C@H]1CC(=O)O` [kainic acid], the “induction of Gas1 expression” value (Gas1 expression) was “strong induction”.

B1: Gas1 protein: purified Gas1 protein overexpressed by a prokaryotic vector (pTrcHis) in bacteria (protein)
chain: LAHGRRLICWQALLQCQGEPECSYAYNQYAEACAPVLAQHGGGDAPGAAAAAFPASAASFSSRWRCPSHCISALIQLNHTRRGPALEDCDCAQDENCKSTKRAIEPCLPRTSGGGAGGPGAGGVMGCTEARRRCDRDSRCNLALSRYLTYCGKVFNGLRCTDECRTVIEDMLAMPKAALLNDCVCDGLERPICESVKENMARLCFGAELGNGPGSSGSDGGLDDYYDEDYDDEQRTGGAGGEQPLDDDDGVPHPPRPGSGAAASGGRGDLPYGPGRRS
With B1 the channel formation [3] was “capable of inserting in and forming cationic channels”.
